Patent publication US9346769B2, “Tetrazolones as inhibitors of fatty acid synthase” (Infinity Pharmaceuticals, Inc., priority 2010, dated 2016)

Molecular target: T1, human FASN (Homo sapiens, UniProt P49327)
T1 construct: was purified from SKBR3 cells using procedures modified from those in Jayakumar et al; endogenous in cells; host or cells: SKBR3 human breast cancer cells (ATCC); Endogenous enzyme purified by ammonium sulfate precipitation and a mono Q column
Assay: FASN Scintillation Proximity Flashplate Assay
Assay type: biochemical
Settings: human FASN purified from SKBR3 cells; unstarred symbols
Procedure: Human FASN protein (SEQ ID NO. 1) was purified from SKBR3 cells using procedures modified from those in Jayakumar et al. PNAS 1995, 92:8695-8699. SKBR3 cells were obtained from ATCC and grown in DMEM high glucose medium supplemented with 10% FBS, 1 μg/mL bovine pancreas insulin, 100 U/mL penicillin and 100 µg/mL streptomycin. The confluent cells were trypsinized and washed three times with PBS buffer before frozen in liquid N2 and stored at −80° C. Frozen cells were thawed on ice and resuspended in lysis buffer (25 mM Tris-HCl, pH 7.0, 15 mM NaCl, 1 mM EDTA, and 1 mM DTT) with protease inhibitors. The cells were lysed by sonication, and the cell debris was removed by centrifugation at 20,000 rpm for 30 min. To the supernatant, neutralized saturated ammonium sulfate solution was added to a final concentration of 35%. The solution was left on ice for 1 hr, and the precipitated proteins were harvested by centrifugation at 20,000 rpm for 30 min. The proteins were redissolved in lysis buffer without NaCl and loaded on a mono Q column. Bound proteins were eluted with a linear gradient of NaCl in lysis buffer. Each fraction was analyzed by SDS-PAGE and FASN NADPH consumption assay. The fractions containing FASN were pooled and concentrated to 2-3 mg/mL. Glycerol was added to 20%, and the protein was frozen in liquid N2 and stored at −80° C.
Acetyl-coenzyme A, malonyl-coenzyme A, NADPH, bovine gamma globulin, and ORLISTAT were purchased from Sigma (St. Louis, Mo.). Tris(2-carboxyethyl) phosphine hydrochloride (TCEP) was purchased from Pierce Biotechnologies (Rockford, Ill.). [^3H]-acetyl-coenzyme A was purchased from Moravek Biochemicals (Brea, CA). FlashPlate™ PLUS phospholipid 96-well scintillant coated microplates were purchased from Perkin Elmer Life and Analytical Sciences (Shelton, CT). The method of the FASN Scintillation Proximity FlashPlate assay is similar to that described in Weiss and Glickman Assay Drug Dev Technol 2003, 1:161-6. In a 96-well polypropylene microplate, a dilution series (typical concentrations 60 nM-1.0 mM) of test compounds were prepared in DMSO followed by a 20-fold dilution into FASN assay buffer (50 mM potassium phosphate, pH 7.0, 1.0 mM EDTA, 0.01% NP-40), of which 5.0 μL each was transferred to a FlashPlate® PLUS 96-well plate and mixed with 35 μL FASN assay buffer plus 0.5 mg/mL bovine gamma globulin and 1 mM TCEP. FASN protein (10 μL, 10 nM) was added per well, and the microplate was incubated at 37° C. for 30 min. 10 μL of 20 mM NADPH was added, and the reaction was initiated by addition of […] substrate mixture to final concentrations of 1 nM FASN, 100 μM acetyl-coenzyme A, 6 μCi [^3H]-acetyl-coenzyme A, 300 μM malonyl-coenzyme A, 2 mM NADPH, 0.5 mg/mL bovine gamma globulin, and 1 mM TCEP in a volume of 100 μL per well. Assay plates were incubated for 2 hr at 37° C. and the reaction was stopped with 2 μL of 2.5 mM stock solution of ORLISTAT in DMSO to ˜50 μM. The plates were read in a Wallac 1450 Microbeta Plus liquid scintillation counter (Perkin Elmer, Waltham, Mass.), and counts per minute (CPM) were collected over 2 min. Each inhibitor well CPM was compared to the maximum FASN enzyme activity (Max) CPM and the background (Min) CPM, as measured by omission of FASN enzyme in the background well. % Inhibition values were calculated, and curves were fitted by a four-parameter logistic function to yield IC50 values:
Compounds were assayed as inhibitors of human FASN using the above-described FASN Scintillation Proximity Flashplate Assay (IC50; nM) or FASN NADPH Consumption Assay (*) (IC50; nM). The corresponding activity of the isolated compound is also provided along with the measured mass (ES^+).

T1 sequence (P49327 whole entry): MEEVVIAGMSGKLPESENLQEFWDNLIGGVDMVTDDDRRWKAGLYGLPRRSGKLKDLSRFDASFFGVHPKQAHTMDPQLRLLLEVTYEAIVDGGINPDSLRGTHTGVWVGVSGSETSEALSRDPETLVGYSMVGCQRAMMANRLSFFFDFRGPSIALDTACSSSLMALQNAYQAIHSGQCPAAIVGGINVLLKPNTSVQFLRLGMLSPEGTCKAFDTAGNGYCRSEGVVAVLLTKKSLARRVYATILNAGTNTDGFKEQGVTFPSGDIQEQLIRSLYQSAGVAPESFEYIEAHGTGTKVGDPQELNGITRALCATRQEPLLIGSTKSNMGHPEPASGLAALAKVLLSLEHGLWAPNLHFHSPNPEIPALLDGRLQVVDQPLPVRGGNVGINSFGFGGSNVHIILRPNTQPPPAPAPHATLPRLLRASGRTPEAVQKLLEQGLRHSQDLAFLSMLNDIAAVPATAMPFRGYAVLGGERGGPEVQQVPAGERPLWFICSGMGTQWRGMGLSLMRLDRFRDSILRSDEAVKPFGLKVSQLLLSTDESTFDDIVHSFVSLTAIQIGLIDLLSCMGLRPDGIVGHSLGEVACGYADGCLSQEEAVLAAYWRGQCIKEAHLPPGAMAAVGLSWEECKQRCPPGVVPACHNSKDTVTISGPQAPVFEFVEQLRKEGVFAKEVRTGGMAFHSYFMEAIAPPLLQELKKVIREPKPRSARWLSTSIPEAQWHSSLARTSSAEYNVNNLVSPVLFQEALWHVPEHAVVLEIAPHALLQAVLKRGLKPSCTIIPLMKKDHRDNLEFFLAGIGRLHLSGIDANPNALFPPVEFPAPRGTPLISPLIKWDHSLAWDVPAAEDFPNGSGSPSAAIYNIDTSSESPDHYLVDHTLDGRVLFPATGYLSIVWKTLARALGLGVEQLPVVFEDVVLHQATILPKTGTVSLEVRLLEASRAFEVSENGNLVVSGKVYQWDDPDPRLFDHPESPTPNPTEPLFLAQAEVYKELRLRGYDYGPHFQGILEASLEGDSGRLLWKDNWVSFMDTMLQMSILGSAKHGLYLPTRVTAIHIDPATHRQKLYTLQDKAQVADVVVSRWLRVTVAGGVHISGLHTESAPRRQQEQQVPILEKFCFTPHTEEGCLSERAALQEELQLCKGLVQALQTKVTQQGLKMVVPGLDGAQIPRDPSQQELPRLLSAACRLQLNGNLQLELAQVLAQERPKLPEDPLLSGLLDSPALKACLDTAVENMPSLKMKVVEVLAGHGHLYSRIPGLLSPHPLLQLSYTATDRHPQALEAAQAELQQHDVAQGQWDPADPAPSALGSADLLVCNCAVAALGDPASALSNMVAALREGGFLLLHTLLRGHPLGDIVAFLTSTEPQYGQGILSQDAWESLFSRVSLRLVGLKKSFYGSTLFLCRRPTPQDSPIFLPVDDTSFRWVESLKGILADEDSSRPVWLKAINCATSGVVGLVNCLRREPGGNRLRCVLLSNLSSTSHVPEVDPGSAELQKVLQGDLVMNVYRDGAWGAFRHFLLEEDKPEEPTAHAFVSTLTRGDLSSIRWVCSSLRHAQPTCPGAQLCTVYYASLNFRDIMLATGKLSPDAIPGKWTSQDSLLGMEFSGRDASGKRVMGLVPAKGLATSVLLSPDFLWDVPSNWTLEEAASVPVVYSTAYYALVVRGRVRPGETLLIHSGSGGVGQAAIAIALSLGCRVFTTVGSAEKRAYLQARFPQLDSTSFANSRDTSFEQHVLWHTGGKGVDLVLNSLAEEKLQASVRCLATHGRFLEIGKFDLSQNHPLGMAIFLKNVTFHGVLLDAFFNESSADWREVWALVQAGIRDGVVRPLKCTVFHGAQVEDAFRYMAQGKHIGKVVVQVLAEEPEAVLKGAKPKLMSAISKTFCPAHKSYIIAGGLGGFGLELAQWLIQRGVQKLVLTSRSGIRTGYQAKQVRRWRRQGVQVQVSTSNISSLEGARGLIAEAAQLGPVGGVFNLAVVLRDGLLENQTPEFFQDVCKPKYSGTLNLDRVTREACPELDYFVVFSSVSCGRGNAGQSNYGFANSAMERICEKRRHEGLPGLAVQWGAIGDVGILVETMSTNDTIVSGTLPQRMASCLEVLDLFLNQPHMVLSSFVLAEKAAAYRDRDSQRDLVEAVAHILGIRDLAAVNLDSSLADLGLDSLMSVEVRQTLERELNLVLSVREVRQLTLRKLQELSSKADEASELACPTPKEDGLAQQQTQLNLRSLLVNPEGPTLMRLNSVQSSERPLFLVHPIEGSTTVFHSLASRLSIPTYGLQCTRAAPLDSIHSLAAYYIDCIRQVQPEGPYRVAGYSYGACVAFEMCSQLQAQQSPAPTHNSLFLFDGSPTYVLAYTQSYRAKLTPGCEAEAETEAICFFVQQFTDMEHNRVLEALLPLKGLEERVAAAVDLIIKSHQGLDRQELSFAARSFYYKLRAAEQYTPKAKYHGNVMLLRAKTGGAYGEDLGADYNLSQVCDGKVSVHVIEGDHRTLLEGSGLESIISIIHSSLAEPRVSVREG

`O=C(OCc1ccccc1)c1cc(N(C(=O)n2nnn(-c3c(F)cccc3F)c2=O)C2CCCCC2)ccc1NCc1ccccc1` gave an IC50 of under 15 nM.

Work on `CCN(C(=O)n1nnn(-c2c(F)cccc2OC)c1=O)c1ccccc1` yielded an IC50 of under 15 nM.

For `O=C(O)COc1ccc(N(C(=O)n2nnn(-c3c(F)cccc3F)c2=O)C2CCCCC2)cc1`, the IC50 was under 15 nM.

For `CN(C)N(C(=O)n1nnn(-c2ccccc2Br)c1=O)C1=CCCC1`, the IC50 was 15 to 100 nM.

Work on `COc1ccc(N(C(=O)n2nnn(-c3c(F)cccc3F)c2=O)C2CCCCC2)cc1C(=O)N(C)C` yielded an IC50 of under 15 nM.

`COc1ccc(N(C(=O)n2nnn(-c3c(F)cccc3OC)c2=O)C(C)C)cc1C(=O)O` gave an IC50 of 15 to 100 nM.

Work on `CCN(C(=O)n1nnn(-c2c(F)cccc2F)c1=O)c1cc(C(=O)O)ccc1OC(C)C` yielded an IC50 of 15 to 100 nM.

`COc1cc(N(C(=O)n2nnn(-c3c(F)cccc3F)c2=O)C(C)C)ccc1C(=O)O` was tested, and the IC50 was under 15 nM.

With `COc1ccc(N(C(=O)n2nnn(-c3c(F)cccc3OCC(OC)OC)c2=O)C2CCCCC2)cc1C(=O)O` the IC50 was under 15 nM.

With `COc1cccc(F)c1-n1nnn(C(=O)N(c2cccc(C(=O)O)c2)C(C)(C)C)c1=O` the IC50 was 200 to 5000 nM.

Molecule `CS(=O)(=O)N1CCN(c2ccc(N(C(=O)n3nnn(-c4c(F)cccc4F)c3=O)C3CCCCC3)cc2C(=O)O)CC1` has an IC50 of under 15 nM.

With `CCN(C(=O)n1nnn(-c2c(F)cccc2OC)c1=O)c1ccc(C(=O)O)c(OC)c1` the IC50 was 15 to 100 nM.

For `O=C(O)c1cc(N(C(=O)n2nnn(-c3c(F)cccc3F)c2=O)C2CCCCC2)cc2c1OCC2`, the IC50 was under 15 nM.

`COc1cccc(F)c1-n1nnn(C(=O)N(c2cccc(F)c2)C(C)(C)C)c1=O` gave an IC50 of 200 to 5000 nM.

For `CCN(C(=O)n1nnn(-c2c(F)cccc2F)c1=O)c1ccc(C(=O)O)c(OC)c1`, the IC50 was under 15 nM.

`CC(C)N(C(=O)n1nnn(-c2c(F)cccc2F)c1=O)c1cc(C(=O)O)ccc1Oc1ccccc1` showed an IC50 of under 15 nM.

`COc1ccc(N(C(=O)n2nnn(-c3c(F)cccc3F)c2=O)C2CCCCC2)c(OC)c1C(=O)O` gave an IC50 of 15 to 100 nM.

With `CCN(C(=O)n1nnn(-c2c(F)cccc2OC)c1=O)c1cccc(Oc2cccc(C(=O)O)c2)c1` the IC50 was under 15 nM.

Work on `COc1ccc(N(C(=O)n2nnn(-c3c(F)cccc3C(=O)O)c2=O)C(C)C)cc1C(=O)OCc1ccccc1` yielded an IC50 of 15 to 100 nM.

`COCCOc1cccc(F)c1-n1nnn(C(=O)N(c2ccc(OC)c(C(=O)O)c2)C2CCCCC2)c1=O` was tested, and the IC50 was under 15 nM.

In the case of `COc1ccc(N(C(=O)n2nnn(-c3c(F)cccc3F)c2=O)C(C)C)cc1C(=O)OCc1ccccc1`, the IC50 is reported as under 15 nM.

`COc1cccc(F)c1-n1nnn(C(=O)N(c2ccccc2)C2CCOCC2)c1=O` showed an IC50 of 15 to 100 nM.

`CC(C)N(C(=O)n1nnn(-c2c(F)cccc2F)c1=O)c1ccc(N(S(C)(=O)=O)S(C)(=O)=O)c(C(=O)O)c1` showed an IC50 of under 15 nM.

`CC(=O)N1CCN(c2ccc(N(C(=O)n3nnn(-c4c(F)cccc4F)c3=O)C3CCCCC3)cc2C(=O)O)CC1` was tested, and the IC50 was under 15 nM.

In the case of `CCOC(=O)c1cc(C)n(-c2ccc(N(C(=O)n3nnn(-c4c(F)cccc4F)c3=O)C3CCCCC3)cc2C(=O)O)n1`, the IC50 is reported as under 15 nM.

`CN(C)N(C(=O)n1nnn(-c2ccccc2Cl)c1=O)/C1=C/CCCCCC1` gave an IC50 of 200 to 5000 nM.

Work on `CC(C)N(C(=O)n1nnn(-c2c(F)cccc2F)c1=O)c1ccc(N)c(C(=O)OCc2ccccc2)c1` yielded an IC50 of under 15 nM.

`CC(C)N(C(=O)n1nnn(-c2c(F)cccc2F)c1=O)c1ccc(NC(=O)OC(C)(C)C)c(C(=O)O)c1` gave an IC50 of under 15 nM.

Molecule `CCCCOc1ccc(C(=O)O)cc1N(CC)C(=O)n1nnn(-c2ccccc2OC)c1=O` has an IC50 of under 15 nM.

With `CCC(C)N(C(=O)n1nnn(-c2c(F)cccc2OC)c1=O)c1cccc(C(=O)OCc2ccccc2)c1` (stereo not shown) the IC50 was under 15 nM.

`CC(C)N(C(=O)n1nnn(-c2c(F)cccc2F)c1=O)c1ccc(Cl)c(C(=O)O)c1` was tested, and the IC50 was under 15 nM.

Work on `CN(C)N(C(=O)n1nnn(-c2ccccc2Cl)c1=O)C1CCCC1` yielded an IC50 of 200 to 5000 nM.

With `COc1cc(C(=O)O)cc(N(C(=O)n2nnn(-c3c(F)cccc3F)c2=O)C(C)C)c1` the IC50 was under 15 nM.

`CCN(C(=O)n1nnn(-c2c(F)cccc2C(=O)NCc2ccccc2)c1=O)c1ccccc1` was tested, and the IC50 was under 15 nM.

`COc1ccc(N(C(=O)n2nnn(-c3c(F)cccc3OC)c2=O)C2CCCC2)cc1C(=O)OCc1ccccc1` showed an IC50 of under 15 nM.

`CCC(CC)N(C(=O)n1nnn(-c2c(F)cccc2F)c1=O)c1cccc(C(=O)O)c1` was tested, and the IC50 was 15 to 100 nM.

`COc1cccc(F)c1-n1nnn(C(=O)N(c2ccc(OCCc3ccccc3)c(C(=O)O)c2)C(C)C)c1=O` gave an IC50 of 15 to 100 nM.

For `CCN(C(=O)n1nnn(-c2ccccc2OC)c1=O)c1ccc(OC)c(C(=O)OCc2ccccc2)c1`, the IC50 was under 15 nM.

In the case of `COc1ccc(C(=O)O)cc1N(C(=O)n1nnn(-c2c(F)cccc2OC)c1=O)C(C)C`, the IC50 is reported as under 15 nM.

`COc1cccc(F)c1-n1nnn(C(=O)N(c2ccccc2)[C@H]2CC[C@H](C(=O)O)CC2)c1=O` was tested, and the IC50 was 100 to 200 nM.

`O=C(O)c1ccc(F)c(N(C(=O)n2nnn(-c3c(F)cccc3F)c2=O)C2CCCC2)c1` was tested, and the IC50 was under 15 nM.

For `CCN(C(=O)n1nnn(-c2c(Cl)cccc2Cl)c1=O)c1ccc(Cl)c(C(=O)OCc2ccc(OC)cc2)c1`, the IC50 was under 15 nM.

Molecule `CCN(C(=O)n1nnn(-c2c(Cl)cccc2Cl)c1=O)c1ccc(C(=O)O)cc1Cl` has an IC50 of under 15 nM.

Molecule `COCCOCOc1ccc(N(C(=O)n2nnn(-c3c(F)cccc3F)c2=O)C2CCCCC2)cc1C(=O)O` has an IC50 of under 15 nM.

Work on `Cc1ccc(C)n1-c1ccc(N(C(=O)n2nnn(-c3c(F)cccc3F)c2=O)C2CCCCC2)cc1C(=O)O` yielded an IC50 of under 15 nM.

Work on `COc1cccc(F)c1-n1nnn(C(=O)N(CC(C)(C)C)c2cccc(C(=O)OCc3ccccc3)c2)c1=O` yielded an IC50 of 15 to 100 nM.

Work on `CCC(CC)N(C(=O)n1nnn(-c2c(F)cccc2F)c1=O)c1cccc(C(=O)OCc2ccccc2)c1` yielded an IC50 of under 15 nM.

`CCC(C)N(C(=O)n1nnn(-c2c(F)cccc2OC)c1=O)c1cccc(C(=O)O)c1` (stereo not shown) gave an IC50 of under 15 nM.

`COc1ccc(COC(=O)c2cc(N(C(=O)n3nnn(-c4c(F)cccc4OC)c3=O)C(C)C)ccc2OCCc2ccccc2)cc1` gave an IC50 of under 15 nM.

In the case of `CCN(C(=O)n1nnn(-c2c(F)cccc2OC)c1=O)c1ccccc1OCCc1ccccc1`, the IC50 is reported as under 15 nM.

Work on `CCN(C(=O)n1nnn(-c2c(F)cccc2OC)c1=O)c1cc(Oc2ccc(C(=O)OCc3ccccc3)cc2)ccc1C` yielded an IC50 of 200 to 5000 nM.

`COc1ccc(N(C(=O)n2nnn(-c3c(F)cccc3C(=O)N(C)c3ccccc3)c2=O)C(C)C)cc1C(=O)O` gave an IC50 of 15 to 100 nM.

For `COc1ccc(N(C(=O)n2nnn(-c3c(F)cccc3OC)c2=O)C2CCCCC2)cc1C(=O)O`, the IC50 was under 15 nM.

For `O=C(N1Cc2cccc3cccc(c23)C1)n1nnn(-c2c(F)cccc2F)c1=O`, the IC50 was 15 to 100 nM.

Molecule `COc1ccc(N(C(=O)n2nnn(-c3c(F)cccc3F)c2=O)C2CCCCC2)cc1C(=O)NC(C)(C)C(=O)O` has an IC50 of under 15 nM.

In the case of `CCN(C(=O)n1nnn(-c2c(F)cccc2F)c1=O)c1ccccc1F`, the IC50 is reported as under 15 nM.

Work on `COc1cc(OC)c(N(C(=O)n2nnn(-c3c(F)cccc3F)c2=O)C(C)C)cc1C(=O)O` yielded an IC50 of 15 to 100 nM.

For `CCN(C(=O)n1nnn(-c2c(Cl)cccc2Cl)c1=O)c1ccc(C(=O)O)cc1`, the IC50 was under 15 nM.

In the case of `CN(C)c1ccc2c(c1)OC(=O)CC2CC(=O)Nc1cccc2c1CCCN2C(=O)n1nnn(-c2c(F)cccc2F)c1=O` (stereo not shown), the IC50 is reported as 15 to 100 nM.

Work on `CCNC(=O)Nc1ccc(N(CC)C(=O)n2nnn(-c3c(F)cccc3F)c2=O)c(F)c1` yielded an IC50 of under 15 nM.

For `COc1ccc(N(C(=O)n2nnn(-c3c(F)cccc3C(=O)N3CCOCC3)c2=O)C(C)C)cc1C(=O)OCc1ccccc1`, the IC50 was under 15 nM.

Work on `COc1ccc(N(C(=O)n2nnn(-c3cccc(N)c3N)c2=O)C2CCCCC2)cc1C(=O)O` yielded an IC50 of 15 to 100 nM.

For `CCCN(CC1CC1)C(=O)n1nnn(-c2ccccc2Cl)c1=O`, the IC50 was 200 to 5000 nM.

For `O=C(N1CCCc2cccc(F)c21)n1nnn(-c2c(F)cccc2F)c1=O`, the IC50 was under 15 nM.
